Laboratory results: PMC6166229 (Journal of Medicinal Chemistry, 2018)
Values belong to the molecule of their own block, whether it stands above or below them.

Key:
[1] = Microsomal clearance, human liver microsomes; type: in vitro ADME; conditions: both, pH 7.4, Clint human
[2] = Dog blood pharmacokinetics; type: in vivo; conditions: whole blood, iv, 1 mg/kg
MPS1 = target: T1, MPS1 (Homo sapiens, UniProt P33981); type: biochemical; conditions: 2,2-dimethylazetidine 48 compared with neopentyl-like analogue (47)
T1 sequence (P33981 1-857): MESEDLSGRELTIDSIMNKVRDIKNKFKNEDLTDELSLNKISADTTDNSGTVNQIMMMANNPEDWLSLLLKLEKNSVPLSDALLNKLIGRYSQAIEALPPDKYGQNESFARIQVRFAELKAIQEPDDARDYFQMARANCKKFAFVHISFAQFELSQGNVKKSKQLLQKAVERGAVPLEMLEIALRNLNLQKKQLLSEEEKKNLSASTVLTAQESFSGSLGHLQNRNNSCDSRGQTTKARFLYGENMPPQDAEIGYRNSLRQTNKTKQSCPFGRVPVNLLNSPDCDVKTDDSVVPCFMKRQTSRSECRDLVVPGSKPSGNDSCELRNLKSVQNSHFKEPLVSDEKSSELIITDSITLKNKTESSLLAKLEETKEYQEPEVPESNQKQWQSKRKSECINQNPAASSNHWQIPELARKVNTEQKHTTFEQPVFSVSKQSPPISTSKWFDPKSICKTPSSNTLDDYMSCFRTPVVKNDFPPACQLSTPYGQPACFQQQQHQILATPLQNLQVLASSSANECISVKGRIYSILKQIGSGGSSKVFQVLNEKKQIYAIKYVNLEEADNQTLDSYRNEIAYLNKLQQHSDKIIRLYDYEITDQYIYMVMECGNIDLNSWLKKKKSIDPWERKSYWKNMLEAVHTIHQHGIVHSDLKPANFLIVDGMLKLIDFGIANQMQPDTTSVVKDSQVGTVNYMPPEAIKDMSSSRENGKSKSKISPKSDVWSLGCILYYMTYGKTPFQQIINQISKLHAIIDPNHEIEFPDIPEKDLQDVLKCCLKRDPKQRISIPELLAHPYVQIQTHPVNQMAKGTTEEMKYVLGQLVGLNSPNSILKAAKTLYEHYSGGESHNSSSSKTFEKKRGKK

microsomal CLint at 1 μM [1]: 79 µL/min/mg
Structure (SMILES): COc1cc(-c2cnc(C)n2C)ccc1Nc1ncc2ccnc(NCC(C)(C)C)c2n1 [Compound 16, N^2-(4-(1,2-Dimethyl-1H-imidazol-5-yl)-2-methoxyphenyl)-N^8-neopentylpyrido[3,4-d]pyrimidine-2,8-diamine]

clearance [2]: 1.2 mL/min/kg
Structure (SMILES): CCOc1cc(-c2nncn2C)ccc1Nc1ncc2cc(C)nc(NCC(C)(C)C)c2n1 [Compound 36, N^2-(2-Ethoxy-4-(4-methyl-4H-1,2,4-triazol-3-yl)phenyl)-6-methyl-N^8-neopentylpyrido[3,4-d]pyrimidine-2,8-diamine]

fold higher IC50 (MPS1): 40 fold
Structure (SMILES): CCOc1cc(-c2nncn2C)ccc1Nc1ncc2cc(C)nc(N3CCC3(C)C)c2n1 [Compound 48, 8-(2,2-Dimethylazetidin-1-yl)-N-(2-ethoxy-4-(4-methyl-4H-1,2,4-triazol-3-yl)phenyl)-6-methylpyrido[3,4-d]pyrimidin-2-amine]
